Data: patent US8748470B2, “Methods for treating ovarian cancer by inhibiting fatty acid binding proteins” (The University of Chicago, priority 2011, dated 2014)

How the values were obtained:
[1] = test system: ID8 mouse ovarian cancer cells; experiment: tumor burden in mice after bursal injection of ID8 cells and treatment with FABP4 inhibitor; format: in vivo; details: 20 mg/kg body weight daily by oral gavage from day 60 after ID8 injection, assessed after 30 d
Description: (a) Immune competent mice were injected with 1 million ID8 cells under the ovarian bursa. […] Number of metastases (a) and metastatic tumor weight (b) were assessed 30 d after the FABP4 inhibitor or control vehicle treatment.

[2] = test system: human ovarian cancer cells (HeyA8 or SKOV3ip1); experiment: ex vivo ovarian cancer cell proliferation on sections of human omentum; format: cell-based; details: HeyA8 or SKOV3ip1, fluorescently labeled, 24 h
Text: Representative images (left) and quantified fluorescence (right) were shown. Bars report means±s.e.m.

SKOV3ip1 cells [3] = experiment: lipid accumulation in cancer cells cocultured with primary human omental adipocytes (Bodipy 493/503, confocal microscopy); format: cell-based
Text: (§1) FIGS. 11a-11g FABP4 has a key role in the interaction of cancer cells with adipocytes. (a) Representative immunohistochemical staining (bottom) for FABP4 in serial sections of primary ovarian tumor and corresponding omental metastatic tissues from a subject with stage IIIC advanced serous ovarian cancer (as classified by the International Federation of Gynecology and Obstetrics). Hematoxylin and eosin (H & E) staining is in the top images. The graph on the right is a summary of FABP4 protein expression scoring in 20 subjects, as assessed by immunohistochemistry. The scoring (0, 1 or 2, corresponding to negative, weak or strong) was performed in different tissue compartments: Benign ovarian stroma (A), primary ovarian cancer in the ovary (B), ovarian cancer metastatic to the omentum (C), interface of ovarian cancer cells into adipocytes (Adi) (D), and adipocytes (E). Error bars, ±s.e.m. […]
Lipid visualization. […] Adipocytes and extracellular fatty acids were washed away with HBSS containing 0.2% fatty-acid free BSA and total fluorescence per well in triplicate was quantified. […] Quantification of Bodipy neutral lipid dye was performed using Imaris software (Bitplane Inc., South Windor, Conn.) and normalized to number of nuclei in field (5-10 fields/condition). […]

SKOV3ip1 cells [4] = experiment: invasion assay of SKOV3ip1 cells toward adipocytes; format: cell-based, human; details: inhibitor added to coculture; used at 10 μM; 24 h
Text: as §1, with “±s.e.m. (b) Confocal microscopy images of lipid accumulation in SKOV3ip1 cells cocultured with or without primary human omental adipocytes and a FABP4 inhibitor (nuclear counterstaining). One of two experiments, conducted with different human subject samples, is shown. (c) Invasion assay of SKOV3ip1 cells toward adipocytes in the absence or presence of the FABP4 inhibitor HTS01037. Bars report mean fold change±s.e.m. One of two experiments, using two different human subject samples, is shown.” for “±s.e.m.”

HSL phosphorylation = experiment: immunoblot for phosphorylated hormone sensitive lipase (p-HSL) in adipocyte/SKOV3ip1 coculture; format: cell-based, human; details: pretreated with 10 μM propranolol
Text: FIGS. 9a-9d Cocultivation of ovarian cancer cells with adipocytes activates lipolysis in adipocytes and β-oxidation in cancer cells. (a) Quantitative RT-PCR for perilipin 1 in primary human omental adipocytes (Adi) cultured with and without SKOV3ip1 ovarian cancer (OvCa) cells. Bars report mean fold change relative to glyceraldehyde 3-phosphate dehydrogenase expression±s.e.m. (b) Immunoblot for phosphorylated hormone sensitive lipase (p-HSL) and total HSL in SKOV3ip1 cells cocultured with (+) and without (−) adipocytes and pretreated with 10 μM propranolol, a β-adrenergic receptor antagonist. (c) SKOV3ip1 cells were cocultured (1 h) with adipocytes, treated with isoproterenol (positive control) or 14-22 amide (negative control) and protein kinase A (PKA) activity was assessed. (d) β-oxidation in MONTY-1 OvCa cells cocultured with primary human adipocytes (L-carnitine, positive control; etomoxir, negative control). The graph reports the average oxidation rate at the indicated times±s.e.m.
Immunoblotting. In coculture experiments, primary human omental adipocytes were added to CMFDA-labeled SKOV3ip1 cells in SFM (1:5, PCV adipocytes:SFM) and incubated for 24 h. The adipocytes were removed and the SKOV3ip1 cells were subjected to FACS sorting to remove any remaining adipocytes in experiments involving FABP4 expression. […]

FABP4 mRNA = FABP4 mRNA expression in ID8 cells transfected with shRNA (quantitative RT-PCR); format: cell-based, mouse; details: ID8 cells transfected with FABP4 shRNA vs vector control
Text: FIGS. 16a-16d Effects of FABP4 downregulation. (a) FABP4 mRNA expression in ID8 mouse ovarian cancer cells transfected with FABP4 small hairpin RNA (shRNA) (F4) or vector control shRNA (VC) in the presence (+) or absence (−) of mouse adipocytes. Bars report means±s.e.m. (b) Tumor burden in mice 10 weeks after intraperitoneal injection of ID8 mouse ovarian cancer cells transfected with 5 million shRNA (F4 or VC). (c) Metastatic tumor burden in mice 10 weeks after intraperitoneal injection of ID8 mouse ovarian cancer cells transfected with 5 million shRNA (F4 or VC). […] FABP4 mRNA expression was measured by quantitiative RT-PCR.
Quantitative real-time PCR. […] Real-time quantitative reverse transcription-PCR (RT-PCR) was performed as described (Sawada et al., 2008) using the following probes (Applied Biosystems, Carlsbad, Calif.): acyl-coenzyme A oxidase (ACOX1, Hs01074241_m1), CXCR1 (IL-8 receptor, Hs00174146 ml), carnitine palmitoyltransferase 1a (CPT1a, Hs00912681_m1), fatty acid binding protein 4 (FABP4; human, Hs00609791_m1; mouse, Mm00445878_m1), perilipin 1 (PLIN1, Hs00160173_m1) and glyceraldehyde-3-phosphate dehydrogenase (GAPDH; human, Hs00266705_g1; mouse, Mm99999915_g1). Relative mRNA gene expression was calculated using the 2^−ΔΔCt method as described (Shell et al., 2007). […]

[5] = test system: ID8 mouse ovarian cancer cells; experiment: tumor burden in mice after intraperitoneal injection of shRNA-transfected ID8 cells; format: in vivo; details: 10 weeks after intraperitoneal injection of shRNA-transfected ID8 cells, vs control group
Text: FIGS. 16a-16d Effects of FABP4 downregulation. (a) FABP4 mRNA expression in ID8 mouse ovarian cancer cells transfected with FABP4 small hairpin RNA (shRNA) (F4) or vector control shRNA (VC) in the presence (+) or absence (−) of mouse adipocytes. Bars report means±s.e.m. (b) Tumor burden in mice 10 weeks after intraperitoneal injection of ID8 mouse ovarian cancer cells transfected with 5 million shRNA (F4 or VC). (c) Metastatic tumor burden in mice 10 weeks after intraperitoneal injection of ID8 mouse ovarian cancer cells transfected with 5 million shRNA (F4 or VC). (d) mRNA expression of FABP4 in tumors collected 10 weeks after intraperitonel injection of ID 8 mouse ovarian cancer cells transferred with FABP4 shRNA or vector control shRNA. FABP4 mRNA expression was measured by quantitiative RT-PCR.
Animal experiments. All animal experiments were approved by the Institutional Animal Care and Use Committee, University of Chicago. Xenograft animal experiments and in vivo homing were conducted in female immune-compromised athymic nude mice. […] Tumor volumes were measured as described (Zou et al., 2007) over 24 d and tumor weight determined at the end of the experiment. […] Metastatic tumor weight and number of metastatic nodules were determined at the end of each experiment and tumor tissue fixed in 10% formalin.

Molecule: CCc1c(-c2ccccc2)c(-c2ccccc2)nn1-c1ccccc1-c1cccc(OCC(=O)O)c1 [BMS309403, ((2′-(5-ethyl-3,4-diphenyl-1H-pyrazol-1-yl)(1,1′-biphenyl)-3-yl)oxy)-acetic acid]
- tumor burden (number of metastases, metastatic tumor weight) [1]: significantly reduced
- human ovarian cancer cell proliferation on sections of human omentum [2]: reduces human ovarian cancer cell proliferation

Molecule: COC(=O)c1sc(-c2cccs2)cc1NC(=O)C=CC(=O)O [HTS01037, 4-{[2-(methoxycarbonyl)-5-(2-thienyl)-3-thienyl]amino}-4-oxo-2-butenoic acid]
- lipid uptake in SKOV3ip1 cells cocultured with human omentum adipocytes (SKOV3ip1 cells [3]; 36 h coculture, Bodipy 493/503): prevents lipid uptake
- lipid accumulation in the cancer cells (SKOV3ip1 cells [3]; inhibitor added to coculture of ovarian cancer cells and adipocytes, used at 10 μM): drastically reduced
- adipocyte-mediated invasion (SKOV3ip1 cells [4]): drastically reduced

Molecule: CC(C)NCC(O)COc1cccc2ccccc12 (centres unmarked) [propranolol]
- ovarian cancer cell-induced HSL activation (HSL phosphorylation): partially reversed

Molecule: FABP4 shRNA: FABP4 small hairpin RNA (shRNA); comprises a nucleic acid sequence of SEQ ID NO: 1 (CCGGCTGGATGGAAATTTGCATCAACTCGAGTTGATGCAAATTTCCATCCAGTTTTTG)
- mRNA expression level of FABP4 (FABP4 mRNA): decreased
- tumor burden, intraperitoneal model [5]: substantially lowered
